Values of other authors as cited in patent publication US20260373165A1, “PHARMACEUTICAL COMBINATIONS AND COMPOSITIONS, AND METHODS OF USE THEREOF” (SHENZHEN HIGHTIDE BIOPHARMACEUTICAL LTD., priority 2022, published 2026).

Settings: after 52 weeks of treatment, lower dose of semaglutide; cited from earlier work

Cc1ccc([C@@H]2O[C@H](CO)[C@@H](O)[C@H](O)[C@H]2O)cc1Cc1ccc(-c2ccc(F)cc2)s1 [cangliflozin, canagliflozin]
average decrease in total fat mass: 7.8%
average decrease in total muscle mass: 2.9%
